We go through 20 compounds from PubChem BioAssay AID298 (DTP/NCI, 2004).

Values joined by “and” are separate entries in the source; they are usually repeats but may differ in a detail not shown here. Equal entries are not always repeated. Results filed as inconclusive are left out. *1 amine or outer side, *2 acyl side, *3 side chain or, on linkers, in order; H or OH if unused. Where a SMILES comes first, the peptide text is derived from it. Bridges are numbered along the chain shown (N, C = ends). Roman numbers before positions name the chains, in order. [ ]: non-standard residue; d: D form. Actinocin(9to1) = Cc1c2oc3c(C)ccc(C(=O)[*:1])c3nc-2c(C(=O)[*:2])c(N)c1=O; aThr = C[C@H](O)[C@H](N)C(=O)O; NMeV = CN[C@H](C(=O)O)C(C)C; Sar = CNCC(=O)O

The experiment deals with MX-1 breast xenograft, intrarenal, nude mice, tumor weight. The experiment in a line: NCI In Vivo Anticancer Drug Screen. Data for tumor model Human Mammary Carcinoma MX-1 Xenograft (intrarenal inoculation) in NU/NU BALB/C (nude) mice. To be noted: endpoint: mean tumor weight change, higher = larger tumour. The procedure, abridged:
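Compounds were given to mice carrying transplanted tumors, and tumor size or survival was measured. Each value is the treated-group measurement (T) divided by the vehicle-treated control-group measurement (C).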
Background: A xenograft is tissue or cells of one species grown in another, often human tumour cells in immunodeficient mice.

Setting [1] is: dose: 100.0 mg/kg/injection, schedule: Q04DX003 (ip), vehicle: Klucel (hydroxypropylcellulose) (HPC).
Setting [2] is: dose: 200.0 mg/kg/injection, schedule: Q04DX003 (ip), vehicle: Klucel (hydroxypropylcellulose) (HPC).
Where [3] appears, read: dose: 200.0 mg/kg/injection, schedule: Q01DX010 (sc), vehicle: Klucel (hydroxypropylcellulose) (HPC).
Setting [4] is: dose: 400.0 mg/kg/injection, schedule: Q01DX010 (sc), vehicle: Klucel (hydroxypropylcellulose) (HPC).
Where [5] appears, read: dose: 100.0 mg/kg/injection, schedule: Q04DX003 (ip), vehicle: saline.
The mark [6] stands for this setting: dose: 200.0 mg/kg/injection, schedule: Q04DX003 (ip), vehicle: saline.
Where [7] appears, read: dose: 150.0 mg/kg/injection, schedule: Q04DX003 (ip), vehicle: saline.
Setting [8] is: dose: 50.0 mg/kg/injection, schedule: Q04DX003 (ip), vehicle: Klucel (hydroxypropylcellulose) (HPC).

For the compound `CN(C)c1ccc2c(Nc3ccc(NS(C)(=O)=O)cc3)c3ccc(N(C)C)cc3nc2c1`, the T/C under setting [1] is 115 % of control and the T/C under setting [2] is 39 % of control.

Take `O=[N+]([O-])O.[Ga]`: the T/C (dose: 200.0 mg/kg/injection, schedule: Q04DX003 (sc), vehicle: saline) is 61 % of control; the T/C (dose: 400.0 mg/kg/injection, schedule: Q04DX003 (sc), vehicle: saline) is 67 % of control; the T/C (dose: 800.0 mg/kg/injection, schedule: Q04DX003 (sc), vehicle: saline) is 81 % of control; the T/C (dose: 1600.0 mg/kg/injection, schedule: Q04DX003 (sc), vehicle: saline) was 74 % of control.

Regarding `O=C(NO)c1ccccc1`, the T/C (dose: 100.0 mg/kg/injection, schedule: Q01DX010 (sc), vehicle: Klucel (hydroxypropylcellulose) (HPC)) is 89 % of control; the T/C under setting [3] is 61 % of control; the T/C under setting [4] is 21 % of control.

For the compound `CN(C)N=Nc1ccc(C(=O)O)cc1`, the T/C is 30 % of control under setting [5]; 2 % of control under setting [6]; -60 % of control (dose: 400.0 mg/kg/injection, schedule: Q04DX003 (ip), vehicle: saline).

In the case of `CC(NNC(=S)N(C)C1CCCCC1)c1cc2ccccc2cn1` (configuration not stated), the T/C under setting [7] was 80 % of control.

As to `c1ccc(P(CCNCCP(c2ccccc2)c2ccccc2)c2ccccc2)cc1`, the T/C was 111 % of control (dose: 100.0 mg/kg/injection, schedule: Q04DX003 (ip), vehicle: saline with Tween-80); 106 % of control (dose: 200.0 mg/kg/injection, schedule: Q04DX003 (ip), vehicle: saline with Tween-80); 81 % of control (dose: 800.0 mg/kg/injection, schedule: Q04DX003 (ip), vehicle: saline with Tween-80).

For `Cc1ccc(C(=O)Nc2ccc(S(=O)(=O)O)c3cc(S(=O)(=O)O)cc(S(=O)(=O)O)c23)cc1NC(=O)c1cccc(NC(=O)Nc2cccc(C(=O)Nc3cc(C(=O)Nc4ccc(S(=O)(=O)O)c5cc(S(=O)(=O)O)cc(S(=O)(=O)O)c45)ccc3C)c2)c1`, the T/C is, setting by setting: (dose: 50.0 mg/kg/injection, schedule: Q04DX003 (ip), vehicle: saline) 77 % of control; under setting [5], 56 % of control; under setting [6], 51 % of control.

For `COC(=O)[C@@]12OC[C@]34[C@H]([C@@H](O)[C@@H]1O)[C@@]1(C)CC(=O)C(OC(=O)CC(=O)OC5=C(C)[C@@H]6C[C@H]7OC(=O)[C@H](OC(=O)/C=C(\C)C(C)C)[C@H]8[C@]9(C(=O)OC)OC[C@]78[C@H]([C@@H](O)[C@@H]9O)[C@@]6(C)CC5=O)=C(C)[C@@H]1C[C@H]3OC(=O)[C@H](OC(=O)/C=C(\C)C(C)C)[C@@H]24`, the T/C runs as follows: (dose: 3.12 mg/kg/injection, schedule: Q04DX003 (ip), vehicle: saline + Tween-80 + alcohol) 86 % of control; (dose: 6.25 mg/kg/injection, schedule: Q04DX003 (ip), vehicle: saline + Tween-80 + alcohol) 63 % of control.

For `C=C1C(O)C2(O)OCC34C(CC5C(C)=CC(=O)C(O)C5(C)C23)OC(=O)C(OC(=O)C/C=C/CCCCCCCC)C14` (configuration not stated), the T/C (dose: 12.5 mg/kg/injection, schedule: Q04DX003 (ip), vehicle: saline + alcohol) was 38 % of control.

Consider `NCc1cc(O)c(O)c(O)c1`, for which the T/C (dose: 150.0 mg/kg/injection, schedule: Q04DX003 (ip), vehicle: water) is 99 % of control; the T/C (dose: 300.0 mg/kg/injection, schedule: Q04DX003 (ip), vehicle: water) was 120 % of control; the T/C (dose: 600.0 mg/kg/injection, schedule: Q04DX003 (ip), vehicle: water) is 89 % of control; the T/C (dose: 1200.0 mg/kg/injection, schedule: Q04DX003 (ip), vehicle: water) is 91 % of control.

Turning to `O=C(O)c1cc(C(=O)O)c(C(=O)O)cc1C(=O)O.[NH2-].[NH2-].[NH2-].[NH2-].[Pt+2].[Pt+2]`, the T/C reads like this: (dose: 10.0 mg/kg/injection, schedule: Q04DX003 (ip), vehicle: water) 81 % of control; (dose: 20.0 mg/kg/injection, schedule: Q04DX003 (ip), vehicle: water) 42 % of control; (dose: 40.0 mg/kg/injection, schedule: Q04DX003 (ip), vehicle: water) 12 % of control.

As to `O=C1CSC(c2cccs2)N1c1nncs1` (configuration not stated), the T/C was 92 % of control under setting [1]; 102 % of control under setting [2]; 57 % of control (dose: 400.0 mg/kg/injection, schedule: Q04DX003 (ip), vehicle: Klucel (hydroxypropylcellulose) (HPC)); 49 % of control (dose: 800.0 mg/kg/injection, schedule: Q04DX003 (ip), vehicle: Klucel (hydroxypropylcellulose) (HPC)).

Turning to `Cc1c2oc3c(C)ccc(C(=O)N[C@@H]4C(=O)N[C@H](C(C)C)C(=O)N5CCC[C@H]5C(=O)N(C)CC(=O)N(C)[C@@H](C(C)C)C(=O)O[C@H]4C)c3nc-2c(C(=O)N[C@@H]2C(=O)N[C@H](C(C)C)C(=O)N3CCC[C@H]3C(=O)N(C)CC(=O)N(C)[C@@H](C(C)C)C(=O)O[C@H]2C)c(N)c1=O` (I: [aThr][dV]P[Sar][NMeV] / II: [aThr][dV]P[Sar][NMeV]; ester I:1-I:C, II:1-II:C; linker I:N-II:N via Actinocin(9to1)), the T/C is 100 % of control (dose: 25.0 micrograms/kg/injection, schedule: Q01DX010 (sc), vehicle: saline); 49 % of control (dose: 50.0 micrograms/kg/injection, schedule: Q01DX010 (sc), vehicle: saline); 12 % of control (dose: 100.0 micrograms/kg/injection, schedule: Q01DX010 (sc), vehicle: saline); 1 % of control (dose: 200.0 micrograms/kg/injection, schedule: Q01DX010 (sc), vehicle: saline).

`CN(C)CCC(=O)C(=Cc1ccc(O)cc1)C(=O)CCN(C)C`: the T/C by setting is: (dose: 75.0 mg/kg/injection, schedule: Q04DX003 (ip), vehicle: saline) 90 % of control; under setting [7], 124 % of control.

With `CCOC(=O)C1=C(Nc2ccc(OC)cc2)C(N)=NC1=N`, the T/C is, setting by setting: (dose: 37.5 mg/kg/injection, schedule: Q04DX003 (ip), vehicle: suspension in saline) 76 % of control; (dose: 75.0 mg/kg/injection, schedule: Q04DX003 (ip), vehicle: suspension in saline) 82 % of control; (dose: 150.0 mg/kg/injection, schedule: Q04DX003 (ip), vehicle: suspension in saline) 79 % of control and 103 % of control; (dose: 300.0 mg/kg/injection, schedule: Q04DX003 (ip), vehicle: suspension in saline) 47 % of control and 50 % of control; (dose: 600.0 mg/kg/injection, schedule: Q04DX003 (ip), vehicle: suspension in saline) 32 % of control.

In the case of `COc1cc2c[n+](C)c3c4cc5c(cc4ccc3c2cc1OC)OCO5`, the T/C reads like this: (dose: 25.0 mg/kg/injection, schedule: Q04DX003 (sc), vehicle: saline with Tween-80) 94 % of control; (dose: 50.0 mg/kg/injection, schedule: Q04DX003 (sc), vehicle: saline with Tween-80) 116 % of control; (dose: 100.0 mg/kg/injection, schedule: Q04DX003 (sc), vehicle: saline with Tween-80) 111 % of control; (dose: 200.0 mg/kg/injection, schedule: Q04DX003 (sc), vehicle: saline with Tween-80) 108 % of control.

Turning to `CC1=CCCC2C1(C)CCC(C)C2(C)Cc1cc(O)ccc1O` (configuration not stated), the T/C runs as follows: (dose: 12.5 mg/kg/injection, schedule: Q04DX003 (ip), vehicle: Klucel (hydroxypropylcellulose) (HPC)) 84 % of control; (dose: 25.0 mg/kg/injection, schedule: Q04DX003 (ip), vehicle: Klucel (hydroxypropylcellulose) (HPC)) 76 % of control; under setting [8], 86 % of control; under setting [1], 66 % of control.

For `CN(C)/N=N/c1nc[nH]c1C(N)=O`, the T/C is 74 % of control under setting [8]; 87 % of control (dose: 75.0 mg/kg/injection, schedule: Q04DX003 (ip), vehicle: Klucel (hydroxypropylcellulose) (HPC)); 82 % of control (dose: 112.0 mg/kg/injection, schedule: Q04DX003 (ip), vehicle: Klucel (hydroxypropylcellulose) (HPC)); 70 % of control under setting [3]; 14 % of control under setting [4].

Take `Nc1ccc(Cn2ccc3c4c(N)nc(N)nc4ccc32)cc1`: the T/C (dose: 18.75 mg/kg/injection, schedule: Q04DX003 (sc), vehicle: saline with Tween-80) is 80 % of control and the T/C (dose: 37.5 mg/kg/injection, schedule: Q04DX003 (sc), vehicle: saline with Tween-80) is 75 % of control.

Take `CC(O)CCC(=O)c1ccoc1` (configuration not stated): the T/C was 191 % of control (dose: 3.75 mg/kg/injection, schedule: Q01DX010 (ip), vehicle: saline); 95 % of control and 120 % of control (dose: 7.5 mg/kg/injection, schedule: Q01DX010 (ip), vehicle: saline); 49 % of control (dose: 60.0 mg/kg/injection, schedule: Q01DX010 (ip), vehicle: saline).
